Marks after values point to notes of the source that are not given here. Positions of bridges follow the written chain, without caps; N, C: chain ends. Residues, ends and D or L forms follow the SMILES beside them.
How the values were obtained:
Assay type in all cases: in vivo, human
[1] = Linaclotide food effect study: plasma levels of linaclotide and its metabolite; details: for Cmax / Tmax: human, plasma, po, 3000 ug, single oral dose 3000 ug, fasted
Experimental: (§1) During the Pretreatment Phase of each Crossover Period, subjects were not to receive study drug. On Day 8 of Crossover Period 1 and Day 43 of Crossover Period 2, subjects started the Treatment Phase and were to receive 300 ug linaclotide once daily for a total of 7 days. On Day 14 and 15 of Crossover Period 1, blood was to be drawn to assay for linaclotide and its active metabolite. After the study procedures were completed on Day 15, subjects were discharged home with instructions to follow the same outpatient diet that they followed during the Screening Stage and to return to the Phase 1 unit on Day 35 for Crossover Period 2. On Day 50 of Crossover Period 2, subjects were to receive a single oral dose of 3000 ug linaclotide and were discharged from the Phase 1 unit on Day 51. After subjects received the 3000 ug dose, blood was to be drawn on Day 50 and 51 to assay for linaclotide and linaclotide metabolites.
Blood samples were to be collected at 0 hour (prior to dosing) and 0.5, 1, 2, 3, 4, 6 and 24 hours post dose on Day 14 of Crossover Period 1 and on Day 50 of Crossover Period 2, for determination of the following PK parameters for linaclotide and a metabolite of linaclotide (CCEYCCNPACTGC (SEQ ID NO: 10)) (if systemic levels of linaclotide and or the metabolite are detected): maximum observed plasma concentration (Cmax), time to maximum concentration (Tmax), area under the plasma concentration time curve (AUC0-t), area under the plasma concentration time curve extrapolated to infinity (AUC0-∞), clearance relative to bioavailability (CL/F), apparent volume of distribution (Vd/F), apparent terminal half life (t1/2).

[2] = Linaclotide food effect study: 24-hour stool recovery; details: following 7 days of dosing at 300 ug per day, both fed and fasted conditions; predominately as a major linaclotide metabolite
Experimental: As for the 24-hour stool results, approximately 3 percent of a single dose of linaclotide was recovered on average following 7 days of dosing at 300 ug per day under both fed and fasted conditions. The recovery was predominately in the form of a major linaclotide metabolite.

healthy volunteers = assay: Linaclotide food effect study: pharmacodynamic effect on bowel habits under fed vs fasted conditions
Experimental: The randomized, open-label, two-period, two-sequence, crossover trial of oral linaclotide in healthy volunteers tested under fasted or fed conditions summarized herein was undertaken to determine if linaclotide is susceptible to a food effect. The study consisted of 4 stages: an 8-day to 15-day Screening Stage, two 15- to 16-day Crossover Periods (1 and 2), and a 21-day Washout Stage which was to occur between Crossover Periods 1 and 2. The doses tested in this study were 300 ug and a 1-day dose of 3000 ug at the end of Crossover Periods 1 and 2.
The study consisted of 4 stages: an 8-day to 15-day Screening Stage which was to take place at home and determine eligibility, two 15- to 16-day stages (Crossover Periods 1 and 2) which were to take place in a Phase 1 unit, and a 21-day Washout Stage which was to take place at home and occur between Crossover Periods 1 and 2. The individual study Stages are detailed below.
Eligible subjects were entered into the Phase 1 unit and were randomized to 1 of 2 Treatment Sequences. Sequence 1 (Fed-Fasted): During Crossover Period 1, linaclotide was to be administered immediately after a high-fat breakfast (the fed condition); during Crossover Period 2, linaclotide was to be administered after a 10-hour fast (the fasted condition). Sequence 2 (Fasted-Fed): During Crossover Period 1, linaclotide was to be administered under the fasted condition; during Crossover Period 2, linaclotide was to be administered under the fed condition.
Crossover Period 1 lasted for 15 days and Crossover Period 2 started on Day 35, immediately after the 21-day Washout Stage, and lasted for 16 days. Subjects were to record their bowel habits in their BHD and ingest their meals at the time determined by their randomization sequence. At a specified time on each day, the information in the BHD was to be reviewed by the site staff to insure appropriate completion.
as §1
Linaclotide was to be administered at the same time each morning with 240 cc (8 oz) of water; food was to be withheld for approximately 4 hr after dosing, and additional water was to be withheld from 1 hour before linaclotide administration until 1 hour after dosing. Under the fed condition, subjects were required to start and complete a high-fat breakfast during the 30 minutes before linaclotide administration. Under the fasted condition, linaclotide was to be administered following an overnight fast.
All meals and meal times were standardized during Crossover Periods 1 and 2 with the total daily calorie, fat, and fiber intake the same for each diet condition (fed and fasted). The daily quantity of these nutrients was based on the “United States Department of Agriculture (USDA) Dietary Recommendations for Americans.” Each subject received approximately 2000 total calories per day.
Linaclotide, 300 ug, oral gelatin capsule. Linaclotide, 3000 ug (5 oral gelatin capsules of 600 ug linaclotide each), single dose.
The primary endpoint was the change from Pretreatment Phase to Treatment Phase for each Crossover Period in stool consistency on the BSFS scale. […]

[3] = 300 ug once daily, Fasted, last 4 days of treatment
[4] = 300 ug once daily, Fasted, over 7 days of treatment
[5] = 300 ug once daily, Fed, last 4 days of treatment
[6] = 300 ug once daily, Fed, over 7 days of treatment
[7] = 300 ug once daily, last 4 days of treatment
[8] = 300 ug once daily, over 7 days of treatment

CCEYCCNPACTGC (Synthetically generated peptide) [linaclotide metabolite, a metabolite of linaclotide]
Plasma level of linaclotide metabolite ([1]; 300 ug linaclotide oral for 7 days of treatment, all subjects, no quantifiable levels, limit of detection=2.0 ng/ml): < 2.0 ng/mL
Metabolite in plasma ([1]; after linaclotide dosing (300 ug and 3000 ug), any subject): No metabolite (SEQ ID NO: 10) was detected

C[C@@H]1NC(=O)[C@@H]2CCCN2C(=O)[C@H](CC(N)=O)NC(=O)[C@@H]2CSSC[C@H](N)C(=O)N[C@H]3CSSC[C@H](NC1=O)C(=O)N[C@@H]([C@@H](C)O)C(=O)NCC(=O)N[C@H](C(=O)N[C@@H](Cc1ccc(O)cc1)C(=O)O)CSSC[C@H](NC(=O)[C@H](Cc1ccc(O)cc1)NC(=O)[C@H](CCC(=O)O)NC3=O)C(=O)N2 [Linaclotide, Cys Cys Glu Tyr Cys Cys Asn Pro Ala Cys Thr Gly Cys Tyr] (H-CCEYCCNPACTGCY-OH; disulfide 1-6, 2-10, 5-13)
Recovery of a single dose in 24-hour stool, on average [2]: approximately 3%
Cmax ([1]; subject 001012): 0.735 ng/mL
Tmax ([1]; subject 001012): 2 h
Tmax ([1]; subject 001019): 0.5 h
Cmax ([1]; subject 001019 (single measurable sample, at LLOQ)): 0.212 ng/mL
CSBM, Change from Pretreatment Mean (SEM) (healthy volunteers; [3]): 0.39 (0.293)
SBM, Change from Pretreatment Mean (SEM) (healthy volunteers; [3]): 0.72 (0.419)
BSFS Score, Change from Pretreatment Mean (SEM) (healthy volunteers; 300 ug once daily, Fasted, last 4 days of treatment (Sensitivity Analysis)): 1.97 (0.174)
BSFS Score, Change from Pretreatment Mean (SEM) (healthy volunteers; [4]): 1.84 (0.177)
CSBM, Change from Pretreatment Mean (SEM) (healthy volunteers; [4]): 1.00 (0.443)
SBM, Change from Pretreatment Mean (SEM) (healthy volunteers; [4]): 1.50 (0.487)
Straining Score, Change from Pretreatment Mean (SEM) (healthy volunteers; [4]): −0.17 (0.057)
CSBM, Change from Pretreatment Mean (SEM) (healthy volunteers; [5]): 1.00 (0.647)
SBM, Change from Pretreatment Mean (SEM) (healthy volunteers; [5]): 2.28 (0.704)
BSFS Score, Change from Pretreatment Mean (SEM) (healthy volunteers; 300 ug once daily, Fed, last 4 days of treatment (Sensitivity Analysis)): 2.36 (0.230)
BSFS Score, Change from Pretreatment Mean (SEM) (healthy volunteers; [6]): 2.45 (0.159)
CSBM, Change from Pretreatment Mean (SEM) (healthy volunteers; [6]): 4.06 (1.181)
SBM, Change from Pretreatment Mean (SEM) (healthy volunteers; [6]): 5.94 (1.503)
Straining Score, Change from Pretreatment Mean (SEM) (healthy volunteers; [6]): −0.16 (0.064)
CSBM, Difference Mean and 90 percent CI Fed-Fasted Difference (healthy volunteers; [7]): 0.61 (−0.49, 1.71)
SBM, Difference Mean and 90 percent CI Fed-Fasted Difference (healthy volunteers; [7]): 1.56 (0.60, 2.51)
BSFS Score, Difference Mean and 90 percent CI Fed-Fasted Difference (healthy volunteers; 300 ug once daily, last 4 days of treatment (Sensitivity Analysis)): 0.38 (−0.09, 0.86)
BSFS Score, Difference Mean and 90% CI Fed-Fasted Difference (healthy volunteers; [8]): 0.61 (0.25, 0.98)^c
CSBM, Difference Mean and 90% CI Fed-Fasted Difference (healthy volunteers; [8]): 3.06 (0.90, 5.21)
SBM, Difference Mean and 90% CI Fed-Fasted Difference (healthy volunteers; [8]): 4.44 (2.22, 6.67)
Straining Score, Difference Mean and 90% CI Fed-Fasted Difference (healthy volunteers; [8]): 0.01 (−0.12, 0.14)
Equivalence of fasted versus fed condition on change from pretreatment BSFS Scores (primary endpoint analysis) (healthy volunteers; 300 ug, 7 days of treatment, 90 percent CI against equivalence margins of ±0.6125): did not demonstrate equivalence
Equivalence of fed versus fasted condition on BSFS Score (Sensitivity Analysis) (healthy volunteers; 300 ug, last 4 days of treatment, 90 percent CI against equivalence margins of ±0.6125): did not fall within the equivalence margins
